# Test results taken from patent US20160015637A1, “ANTI-ITCHING POWDER” (Lilac Laboratory Co., Ltd., priority 2014, published 2016).
# Test: itch prevention effect experiment (somesthetic testing, powder applied to the skin over the whole body)
# Assay type: in vivo, examinees (male: 2, female: 1)
# Settings: for proportion of itch: itches without application set to 100, climbing/running 100 times, eight hours from test start; for itch removal / itch prevention effect bodily sensed: somesthetic testing, result in words
# Procedure: Purpose of Experiment The fine powder of the aluminum chloride hexahydrate and the cyclodextrin (referred to as the CD) were each used alone for application to the skin over the whole body. From the result, whether the itch prevention effect was able to be bodily sensed or not was determined through somesthetic testing.
# Participated Examinees three (male: 2, female: 1)
# Testing Method Fine powder compositions of Experiment 1 to Experiment 3 were applied to the skin over the whole body. The climbing of a low mountain (altitude: 300 to 400 m) of 2 to 20 km and running of 2 to 15 km were executed 100 times appropriately for all seasons and for two years with the respective samples. Whether the itch was clearly removed or not and the appearance of the itch was able to be prevented or not were measured setting eight hours from the test start as terminal time. During the period, the somesthetic testing was conducted for determination. The total count of itches developed without application of various kinds of fine powder agents to the skin over the whole body (the head, the face, the body, and the entire feet) was set to 100. The degree of the itch was indicated by a “proportion of itch.”
Structure (SMILES),proportion of itch [%],itch removal / itch prevention effect bodily sensed
OC[C@H]1O[C@@H]2O[C@H]3[C@H](O)[C@@H](O)[C@@H](O[C@H]4[C@H](O)[C@@H](O)[C@@H](O[C@H]5[C@H](O)[C@@H](O)[C@@H](O[C@H]6[C@H](O)[C@@H](O)[C@@H](O[C@H]7[C@H](O)[C@@H](O)[C@@H](O[C@H]1[C@H](O)[C@H]2O)O[C@@H]7CO)O[C@@H]6CO)O[C@@H]5CO)O[C@@H]4CO)O[C@@H]3CO [α-CD],100,The itch was not removed
OC[C@H]1O[C@@H]2O[C@H]3[C@H](O)[C@@H](O)[C@@H](O[C@H]4[C@H](O)[C@@H](O)[C@@H](O[C@H]5[C@H](O)[C@@H](O)[C@@H](O[C@H]6[C@H](O)[C@@H](O)[C@@H](O[C@H]7[C@H](O)[C@@H](O)[C@@H](O[C@H]8[C@H](O)[C@@H](O)[C@@H](O[C@H]1[C@H](O)[C@H]2O)O[C@@H]8CO)O[C@@H]7CO)O[C@@H]6CO)O[C@@H]5CO)O[C@@H]4CO)O[C@@H]3CO [β-CD],100,the itch prevention effect was not able to be bodily sensed
OC[C@H]1O[C@@H]2O[C@H]3[C@H](O)[C@@H](O)[C@@H](O[C@H]4[C@H](O)[C@@H](O)[C@@H](O[C@H]5[C@H](O)[C@@H](O)[C@@H](O[C@H]6[C@H](O)[C@@H](O)[C@@H](O[C@H]7[C@H](O)[C@@H](O)[C@@H](O[C@H]8[C@H](O)[C@@H](O)[C@@H](O[C@H]9[C@H](O)[C@@H](O)[C@@H](O[C@H]1[C@H](O)[C@H]2O)O[C@@H]9CO)O[C@@H]8CO)O[C@@H]7CO)O[C@@H]6CO)O[C@@H]5CO)O[C@@H]4CO)O[C@@H]3CO [γ-CD],100,the itch prevention effect was not able to be bodily sensed
